{
  "source": "patent US20170035894A1",
  "about": "“DRUG DELIVERY CONJUGATES FOR TREATING RESISTANT CANCER AND FOR USE IN COMBINATION THERAPY” (ENDOCYTE, INC., priority 2014, published 2017)",
  "key": {"[1]": {"target": "T1, folate receptors (FRs) on KB cells (Homo sapiens, UniProt P15328)", "T1 construct": "FR-positive KB cells were heavily seeded into 24-well cell culture plates; endogenous in cells; host or cells: KB cells (human cervical carcinoma)", "T1 sequence (P15328 25-234)": "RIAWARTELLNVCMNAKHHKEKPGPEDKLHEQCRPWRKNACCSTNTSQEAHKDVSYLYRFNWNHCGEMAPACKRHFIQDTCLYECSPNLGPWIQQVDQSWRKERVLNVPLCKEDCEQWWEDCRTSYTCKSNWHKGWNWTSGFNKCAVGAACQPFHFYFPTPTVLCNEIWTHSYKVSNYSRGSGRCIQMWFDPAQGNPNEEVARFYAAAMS", "assay": "Relative Affinity Assay (3H-folic acid displacement)", "type": "binding", "description": "METHOD. Relative Affinity Assay. […] Briefly, FR-positive KB cells were heavily seeded into 24-well cell culture plates and allowed to adhere to the plastic for 18 h. Spent incubation media was replaced in designated wells with folate-free RPMI (FFRPMI) supplemented with 100 nM ^3H-folic acid in the absence and presence of increasing concentrations of test article or folic acid. Cells were incubated for 60 min at 37° C. and then rinsed 3 times with PBS, pH 7.4. […] Cell lysates were then collected and added to individual vials containing 5 mL of scintillation cocktail, and then counted for radioactivity. Negative control tubes contained only the ^3H-folic acid in FFRPMI (no competitor). Positive control tubes contained a final concentration of 1 mM folic acid, and CPMs measured in these samples (representing non-specific binding of label) were subtracted from all samples."}, "[2]": {"system": "FR expressing cells (FR+) and cells that do not express FR (FR−)", "assay": "Selectivity for folate receptor expressing cells", "type": "cell-based, human"}, "[3]": {"system": "M109 (lung carcinoma) tumors", "assay": "Inhibition of tumor growth, s.c. M109 tumors", "type": "in vivo, nu/nu mice", "description": "METHOD. Inhibition of Tumor Growth in Mice. Four to seven week-old mice (Balb/c or nu/nu strains) were purchased from Harlan Sprague Dawley, Inc. (Indianapolis, Ind.). Normal rodent chow contains a high concentration of folic acid (6 mg/kg chow); accordingly, test animals were maintained on a folate-free diet (Harlan diet #TD00434) for about 1 week before tumor implantation to achieve serum folate concentrations close to the range of normal human serum, and during the Method. For tumor cell inoculation, 1×10^6 M109 cells (a syngeneic lung carcinoma) in Balb/c strain, or 1×10^6 KB cells in nu/nu strain, in 100 μL were injected in the subcutis of the dorsal medial area (right axilla). Tumors were measured in two perpendicular directions every 2-3 days using a caliper, and their volumes were calculated as 0.5×L×W^2, where L=measurement of longest axis in mm and W=measurement of axis perpendicular to L in mm.\nTest animals (5/group) ere injected i.v., generally three times a week TIW), for 3 weeks with varying doses, such as with 1 μmol/kg to 5 μmol/kg, of the drug delivery conjugate or with an equivalent dose volume of PBS (control), unless otherwise indicated. Dosing solutions were prepared fresh each day in PBS and administered through the lateral tail vein of the mice."}},
  "data": [
    {"molecule": "CCCC(=O)OCN(C(=O)[C@@H](NC(=O)[C@H]1CCCCN1C)C(C)CC)[C@H](C[C@@H](OC(C)=O)c1nc(C(=O)N[C@@H](Cc2ccc(O)cc2)C[C@H](C)C(=O)NNC(=O)OCCSSC[C@@H](NC(=O)[C@H](CCC(=O)NC[C@H](O)[C@@H](O)[C@H](O)[C@H](O)CO)NC(=O)[C@@H](CCC(=O)O)NC(=O)[C@H](CCC(=O)NC[C@H](O)[C@@H](O)[C@H](O)[C@H](O)CO)NC(=O)[C@@H](CCC(=O)O)NC(=O)[C@H](CCC(=O)NC[C@H](O)[C@@H](O)[C@H](O)[C@H](O)CO)NC(=O)CC[C@@H](NC(=O)c2ccc(NCc3cnc4nc(N)[nH]c(=O)c4n3)cc2)C(=O)O)C(=O)O)cs1)C(C)C", "note": "(stereo in doubt) [EC1456]", "values": [
      {"measurement": "Relative Affinity (a)", "setting": "[1]", "result": 0.27},
      {"measurement": "binding to low and high FR expressing cells (FR+)", "setting": "[2]; FR+ cells", "result": "high competable binding"},
      {"measurement": "binding to cells that do not express FR (FR−)", "setting": "[2]; FR− cells", "result": "did not show binding"},
      {"measurement": "efficacy of co-administration of EC1456 and cisplatin", "setting": "[3]; EC1456 2 μmol/kg TIW×2 + cisplatin 3 mg/kg BIW×2", "result": "enhanced technical effect over both monotherapies"},
      {"measurement": "efficacy of EC1456 alone compared to cisplatin", "setting": "[3]; EC1456 2 μmol/kg TIW×2 vs cisplatin 3 mg/kg BIW×2", "result": "improved efficacy over cisplatin"}
    ]}
  ]
}
